# According to ChEMBL document CHEMBL1909046, “DrugMatrix in vitro pharmacology data”:
# pIC50, pKi: −log10 of the molar value.
# Assays:
# [1] = target: T1, Muscarinic acetylcholine receptor M2 (Homo sapiens, UniProt P08172); format: cell membranes, CHO-K1, Membrane; details: cho-k1; also: in other assays of this panel Not Active means under 50% inhibition at 10 µM
# T1 sequence (P08172 whole entry): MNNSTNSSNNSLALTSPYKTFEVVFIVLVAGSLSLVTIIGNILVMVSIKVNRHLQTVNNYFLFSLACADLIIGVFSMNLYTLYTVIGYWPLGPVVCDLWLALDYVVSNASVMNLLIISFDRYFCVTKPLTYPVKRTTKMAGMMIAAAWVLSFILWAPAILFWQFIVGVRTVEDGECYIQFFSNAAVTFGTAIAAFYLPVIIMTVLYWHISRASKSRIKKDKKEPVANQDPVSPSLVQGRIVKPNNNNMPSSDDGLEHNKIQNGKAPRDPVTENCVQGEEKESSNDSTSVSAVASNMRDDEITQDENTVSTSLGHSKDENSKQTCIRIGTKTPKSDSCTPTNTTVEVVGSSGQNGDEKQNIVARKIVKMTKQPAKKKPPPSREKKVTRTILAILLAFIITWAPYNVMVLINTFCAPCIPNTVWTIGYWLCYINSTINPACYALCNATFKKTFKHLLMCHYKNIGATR
# Neutrophil elastase = target: T2, Neutrophil elastase (Homo sapiens, UniProt P08246); format: tissue-based;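 also: inhibition of neutrophil elastase enzyme activity, measured with a p-nitroanilide-linked peptide substrate; in other assays of this panel Not Active means under 50% inhibition at 10 µM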
# T2 sequence (P08246 whole entry): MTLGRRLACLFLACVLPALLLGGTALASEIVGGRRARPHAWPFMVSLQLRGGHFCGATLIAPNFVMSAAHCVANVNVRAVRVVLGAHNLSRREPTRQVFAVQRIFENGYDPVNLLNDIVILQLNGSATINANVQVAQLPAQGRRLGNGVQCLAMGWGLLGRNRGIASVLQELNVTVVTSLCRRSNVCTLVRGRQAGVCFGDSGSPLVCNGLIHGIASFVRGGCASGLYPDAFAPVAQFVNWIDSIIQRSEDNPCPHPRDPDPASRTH
# [2] = target: T3, Alpha-1D adrenergic receptor (Homo sapiens, UniProt P25100); format: cell membranes, HEK293, Membrane; details: for IC50: hek293; for pIC50: read-out: IC50; for pKi: read-out: Ki; as to all read-outs here: in other assays of this panel Not Active means under 50% inhibition at 10 µM
# T3 sequence (P25100 whole entry): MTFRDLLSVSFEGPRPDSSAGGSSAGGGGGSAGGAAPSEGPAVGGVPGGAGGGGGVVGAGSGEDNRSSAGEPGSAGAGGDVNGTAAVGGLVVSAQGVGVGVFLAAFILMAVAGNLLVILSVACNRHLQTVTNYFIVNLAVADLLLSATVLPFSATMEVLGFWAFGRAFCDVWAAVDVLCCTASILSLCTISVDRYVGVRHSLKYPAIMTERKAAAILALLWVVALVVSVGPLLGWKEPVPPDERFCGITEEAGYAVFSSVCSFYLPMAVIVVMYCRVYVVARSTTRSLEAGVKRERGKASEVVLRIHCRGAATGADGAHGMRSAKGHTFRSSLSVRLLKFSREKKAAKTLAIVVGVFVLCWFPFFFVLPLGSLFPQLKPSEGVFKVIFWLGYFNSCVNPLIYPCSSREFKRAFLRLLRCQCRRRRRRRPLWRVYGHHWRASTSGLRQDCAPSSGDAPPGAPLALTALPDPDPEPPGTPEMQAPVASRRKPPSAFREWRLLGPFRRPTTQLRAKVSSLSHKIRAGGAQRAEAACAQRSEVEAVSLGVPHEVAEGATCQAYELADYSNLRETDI
# [3] = DRUGMATRIX: GABAA, Muscimol, Central radioligand binding (ligand: [3H] Muscimol); format: cell membranes, Rattus norvegicus, Wistar, Brain, Membrane; details: Not Active = under 50% inhibition at 10 µM
# [4] = target: Platelet-activating factor receptor (Homo sapiens, UniProt P25105); format: tissue-based; also: in other assays of this panel Not Active means under 50% inhibition at 10 µM
# Chain of Platelet-activating factor receptor (P25105 whole entry): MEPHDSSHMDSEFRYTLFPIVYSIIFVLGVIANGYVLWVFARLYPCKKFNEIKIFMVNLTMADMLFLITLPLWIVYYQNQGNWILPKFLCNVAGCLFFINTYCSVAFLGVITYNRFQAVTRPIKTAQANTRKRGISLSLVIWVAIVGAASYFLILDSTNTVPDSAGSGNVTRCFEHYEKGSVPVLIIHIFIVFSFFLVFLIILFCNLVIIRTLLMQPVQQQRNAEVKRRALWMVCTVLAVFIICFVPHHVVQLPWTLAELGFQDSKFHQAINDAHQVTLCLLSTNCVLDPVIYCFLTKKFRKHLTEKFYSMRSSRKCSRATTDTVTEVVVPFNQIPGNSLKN
# [5] = target: Beta-3 adrenergic receptor (Homo sapiens, UniProt P13945); assay: DRUGMATRIX: Adrenergic beta3 radioligand binding (ligand: [125I] Cyanopindolol); format: cell membranes, HEK293, Membrane; details: hek293; Not Active = under 50% inhibition at 10 µM
# Chain of Beta-3 adrenergic receptor (P13945 whole entry): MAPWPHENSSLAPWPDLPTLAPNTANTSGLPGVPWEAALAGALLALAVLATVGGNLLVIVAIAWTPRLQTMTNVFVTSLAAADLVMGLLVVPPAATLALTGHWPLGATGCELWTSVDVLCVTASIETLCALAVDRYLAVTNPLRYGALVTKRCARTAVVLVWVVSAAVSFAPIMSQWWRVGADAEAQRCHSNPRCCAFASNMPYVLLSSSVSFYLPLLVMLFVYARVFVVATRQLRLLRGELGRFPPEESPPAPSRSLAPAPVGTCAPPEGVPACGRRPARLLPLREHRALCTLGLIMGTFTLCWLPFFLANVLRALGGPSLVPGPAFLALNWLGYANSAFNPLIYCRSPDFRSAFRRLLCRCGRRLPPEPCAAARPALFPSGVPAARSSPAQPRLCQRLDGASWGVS
Compound,IC50 [1],IC50 (Neutrophil elastase),IC50 [2],IC50 [3],Ki [3],IC50 [4],IC50 [5],pIC50 [2],pKi [2]
CC(N)C12CC3CC(CC(C3)C1)C2 (centres undefined) [RIMANTADINE],Not Active,Not Active,Not Active,Not Active,Not Active,Not Active,Not Active,,
CS(=O)(=O)c1ccc(C2=C(c3ccccc3)C(=O)OC2)cc1 [ROFECOXIB],Not Active,Not Active,Not Active,Not Active,Not Active,Not Active,Not Active,,
CCOc1cc(N)c(Cl)cc1C(=O)NCC1CN(Cc2ccc(F)cc2)CCO1 (centres undefined) [MOSAPRIDE],Not Active,Not Active,Not Active,Not Active,Not Active,Not Active,Not Active,,
Cc1ccnc(NS(=O)(=O)c2ccc(N)cc2)n1 [SULFAMERAZINE],Not Active,Not Active,Not Active,Not Active,Not Active,Not Active,Not Active,,
OC[C@@H](O)[C@@H](O)[C@H](O)[C@H](O)CO [MANNITOL],Not Active,Not Active,Not Active,Not Active,Not Active,Not Active,Not Active,,
Oc1ccc(/C=C/c2cc(O)cc(O)c2)cc1 [RESVERATROL],Not Active,Not Active,Not Active,Not Active,Not Active,Not Active,Not Active,,
CC1=C(/C=C/C(C)=C/C=C/C(C)=C/C(=O)O)C(C)(C)CCC1 [TRETINOIN],Not Active,Not Active,Not Active,Not Active,Not Active,Not Active,Not Active,,
C=CCc1ccc2c(c1)OCO2 [SAFROLE],Not Active,Not Active,Not Active,Not Active,Not Active,Not Active,Not Active,,
CCN(CC)N=O [N-NITROSODIETHYLAMINE],Not Active,Not Active,Not Active,Not Active,Not Active,Not Active,Not Active,,
CCN1CCCC1CNC(=O)c1cc(S(N)(=O)=O)ccc1OC (centres undefined) [SULPIRIDE],Not Active,Not Active,Not Active,Not Active,Not Active,Not Active,Not Active,,
O=C1CC[C@@]2(O)[C@H]3Cc4ccc(O)c5c4[C@@]2(CCN3CC2CC2)[C@H]1O5 [NALTREXONE],Not Active,Not Active,Not Active,Not Active,Not Active,Not Active,Not Active,,
C[N+]1(C)[C@@H]2C[C@@H](OC(=O)[C@H](CO)c3ccccc3)C[C@H]1[C@@H]1O[C@@H]12.[Br-] [METHSCOPOLAMINE BROMIDE],,Not Active,Not Active,Not Active,Not Active,Not Active,Not Active,,
CCN(CC)CCNC(=O)c1cc(Cl)c(N)cc1OC [METOCLOPRAMIDE],Not Active,Not Active,Not Active,Not Active,Not Active,Not Active,Not Active,,
Cc1cc2c(s1)Nc1ccccc1N=C2N1CCN(C)CC1 [OLANZAPINE],Not Active,Not Active,,,,Not Active,Not Active,,
CN(C)CCC=C1c2ccccc2COc2ccccc21 [DOXEPIN],,Not Active,,,,Not Active,Not Active,6.93,7.24
CNCCCC12CCC(c3ccccc31)c1ccccc12 [MAPROTILINE],,Not Active,,,,Not Active,Not Active,6.40,6.71
